Experimental data taken from patent publication US10752612B2, “PLK4 inhibitors” (LUDWIG INSTITUTE FOR CANCER RESEARCH LTD, priority 2015, dated 2020).

Target: T1, human Plk4 kinase domain (aa 2-275) (Homo sapiens, UniProt O00444)
T1 construct: purified 6×His-tagged human Plk4 kinase domain (aa 2-275); 6xHis; made in house; host or cells: E. coli
T1 sequence (O00444 2-275): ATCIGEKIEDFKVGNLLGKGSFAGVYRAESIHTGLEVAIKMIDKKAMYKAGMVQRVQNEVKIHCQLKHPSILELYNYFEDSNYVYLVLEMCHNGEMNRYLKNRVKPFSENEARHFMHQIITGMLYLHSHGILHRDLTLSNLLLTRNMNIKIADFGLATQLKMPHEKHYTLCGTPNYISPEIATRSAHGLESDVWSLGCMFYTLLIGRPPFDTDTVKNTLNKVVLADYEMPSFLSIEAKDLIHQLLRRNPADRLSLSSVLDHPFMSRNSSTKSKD
Test: Plk4 kinase assay (ADP-Glo)
Format: biochemical
Settings: Table 1
Experimental: Kinase assays. […] The Plk4 concentration in the final reaction was 2.5-10 nM with a final pH of 8.0. […] Reactions were allowed to proceed for 4-16 hours at 25° C. Detection was performed using ADP-Glo reagent (Promega), following manufacturer's instructions. Luminescence was measured on an Infinite M1000 plate reader (Tecan). Data were fit using Prism (GraphPad) and Kis were calculated from IC50 data using the Cheng and Prusoff equation (37) or the Copeland formalism for tight-binding inhibitors (38).

Row | IC50 [nM] | SMILES
1 | 100 to 1000 | CCOc1c(Nc2cc(C)[nH]n2)nc(Sc2ccc(NC(=O)C3CC3)cc2)nc1N1CCN(C(=O)COC)CC1
2 | < 1000 | CCOc1c(Nc2cc(C)[nH]n2)nc(Sc2ccc(S(=O)(=O)CC)cc2)nc1N1CCNCC1
3 | < 1000 | COc1c(Nc2cc(C)[nH]n2)nc(Sc2ccc(CCc3cccc([N+](=O)[O-])c3F)cc2F)nc1N1CCOCC1
4 | < 1000 | CC(=O)Nc1ccc(Sc2nc(Nc3cc(C)[nH]n3)c(C)c(N3CCOCC3)n2)cc1
5 | < 1000 | COc1cccc(CS(=O)(=O)c2ccc(Sc3nc(Nc4cc(C)[nH]n4)c(OC)c(N4CCN(CCN(C)C)CC4)n3)cc2)c1
6 | < 1000 | COc1c(Nc2cc(C)[nH]n2)nc(Sc2ccc(S(C)(=O)=O)cc2)nc1N1CCN(CCN(C)C)CC1
7 | < 1000 | COc1c(Nc2cc(C)[nH]n2)nc(Sc2ccc(NC(=O)C3CC3)cc2)nc1N1CCN(C(C)=O)CC1
8 | < 1000 | COc1c(Nc2cc(C)[nH]n2)nc(Sc2ccc(S(=O)(=O)Cc3cccc(C(C)=O)c3)cc2)nc1N1CCN(CCN(C)C)CC1
9 | < 1000 | Cc1cc(Nc2nc(Sc3ccc(NC(=O)C4CC4)cc3)nc(N3CCC(O)CC3)c2C)n[nH]1
10 | < 1000 | CC(=O)Nc1ccc(Sc2nc(N3CCC(O)CC3)nc(Nc3cc(C)[nH]n3)c2Cl)cc1
11 | < 1000 | Cc1cc(Nc2nc(Sc3ccc(NC(=O)C4CCCC4)cc3)nc(N(C)C(C)C)c2C)n[nH]1
12 | < 1000 | CC(=O)Nc1ccc(Sc2nc(Nc3cc(C)[nH]n3)c(C)c(N3CCN(C)CC3)n2)cc1
13 | < 1000 | COc1c(Nc2cc(C)[nH]n2)nc(Sc2ccc(S(=O)(=O)Cc3cccc([N+](=O)[O-])c3F)cc2F)nc1N1CCC(CC(N)=O)CC1
14 | < 1000 | COc1c(Nc2cc(C)[nH]n2)nc(Sc2ccc(S(=O)(=O)Cc3cccc([N+](=O)[O-])c3)cc2F)nc1N1CCOC[C@@H]1C
15 | 100 to 1000 | COc1c(Nc2cc(C)[nH]n2)nc(Sc2ccc(NC(=O)C3CC3)cc2)nc1N(C)CCN(C)C
16 | < 1000 | COc1c(Nc2cc(C)[nH]n2)nc(Sc2ccc(NC(C)=O)cc2)nc1N1CCN(C)CC1

Row | IC50 [nM] | SMILES
17 | < 1000 | COC(=O)c1ccc(Sc2nc(Nc3cc(C)[nH]n3)c(OC)c(N3CCN(CCN(C)C)CC3)n2)cc1
18 | < 1000 | COc1c(Nc2cc(C)[nH]n2)nc(Sc2ccc(S(=O)(=O)Cc3cccc(C)c3)cc2)nc1N1CCN(CCN(C)C)CC1
19 | < 1000 | Cc1cc(Nc2nc(Sc3ccc(NC(=O)C4CC4)cc3)nc3c2C(C)CC3)n[nH]1 (centres unmarked)
20 | < 1000 | Cc1cc(Nc2nc(Sc3ccc(NC(=O)C4CCCC4)cc3)nc(N3CCCCC3)c2C)n[nH]1
21 | < 1000 | COc1c(Nc2cc(C)[nH]n2)nc(Sc2ccc(S(=O)(=O)C(C)(C)c3cccc([N+](=O)[O-])c3F)cc2F)nc1N1CCN(CCNC(=O)C(F)(F)F)CC1
22 | < 1000 | COc1c(Nc2cc(C)[nH]n2)nc(Sc2ccc(S(=O)(=O)C(C)(C)c3c(F)c(F)cc(F)c3F)cc2F)nc1N1CCC(N)CC1
23 | < 1000 | CCOc1c(Nc2cc(C)[nH]n2)nc(Sc2ccc(S(=O)(=O)CC)cc2)nc1N1CCN(CCN(C)C)CC1
24 | < 1000 | CCN(C)c1nc(Sc2ccc(NC(C)=O)cc2)nc(Nc2cc(C)[nH]n2)c1C
25 | < 1000 | COc1c(Nc2cc(C)[nH]n2)nc(Sc2ccc(S(=O)(=O)Cc3ccccc3)cc2)nc1N1CCOCC1
26 | > 1000 | COC(=O)Cc1cc(Nc2nc(SC)nc(N3CCN(CCN(C)C)CC3)c2OC)n[nH]1
27 | < 1000 | CCOc1c(Nc2cc(C)[nH]n2)nc(Sc2ccc(S(=O)(=O)Cc3ccccc3)cc2)nc1N1CCN(CCN(C)C)CC1
28 | 100 to 1000 | CSc1c(Nc2cc(C)[nH]n2)nc(Sc2ccc(NC(=O)C3CC3)cc2)nc1N1CCN(C)CC1
29 | < 1000 | COc1c(Nc2cc(C)[nH]n2)nc(Sc2ccc(S(=O)(=O)Cc3cccc([N+](=O)[O-])c3Cl)cc2)nc1N1CCN(CCN(C)C)CC1
30 | < 1000 | COc1c(Nc2cc(C)[nH]n2)nc(Sc2ccc(S(=O)(=O)Cc3cccc([N+](=O)[O-])c3F)cc2F)nc1N1CCOC[C@H]1C
31 | < 1000 | COc1c(Nc2cc(C)[nH]n2)nc(Sc2ccc(S(=O)(=O)Cc3cccc(Br)c3F)cc2F)nc1N1CCOCC1
32 | < 1000 | COc1c(Nc2cc(C)[nH]n2)nc(Sc2ccc(S(=O)(=O)Cc3ccccc3C)cc2)nc1N1CCN(CCN(C)C)CC1
